The term IC50 denotes the concentration that gives 50% inhibition. Higher therefore signals lower potency. Broadly, the EC50 is the concentration giving half of the maximal effect. High values mean lower potency in that assay, low ones higher potency in that assay.

The values below come from patent US7399744B2, “Methods for affecting body composition” (Amylin Pharmaceuticals, Inc., priority 2004, dated 2008).

In one assay the target is T1, amylin receptors (Rattus norvegicus, UniProt P32214+Q9JJ74).
T1 construct: This basal forebrain tissue, containing the nucleus accumbens and surrounding regions, was weighed and homogenized; from tissue; host or cells: rat basal forebrain (nucleus accumbens and surrounding regions) membranes
T1 sequence (P32214 25-516): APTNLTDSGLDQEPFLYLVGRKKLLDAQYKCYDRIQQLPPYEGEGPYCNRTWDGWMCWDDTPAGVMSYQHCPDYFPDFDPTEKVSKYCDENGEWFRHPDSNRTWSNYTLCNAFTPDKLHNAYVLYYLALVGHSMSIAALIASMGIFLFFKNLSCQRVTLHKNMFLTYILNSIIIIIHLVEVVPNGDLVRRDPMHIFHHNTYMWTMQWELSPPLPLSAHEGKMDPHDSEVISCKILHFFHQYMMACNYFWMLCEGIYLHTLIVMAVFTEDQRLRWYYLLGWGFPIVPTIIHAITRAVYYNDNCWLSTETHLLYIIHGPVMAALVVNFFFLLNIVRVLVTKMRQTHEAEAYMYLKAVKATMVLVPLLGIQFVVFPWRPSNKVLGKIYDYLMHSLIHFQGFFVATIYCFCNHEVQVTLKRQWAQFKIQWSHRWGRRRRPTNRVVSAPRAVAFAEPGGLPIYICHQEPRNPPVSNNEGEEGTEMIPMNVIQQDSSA
T1 sequence (Q9JJ74 27-148): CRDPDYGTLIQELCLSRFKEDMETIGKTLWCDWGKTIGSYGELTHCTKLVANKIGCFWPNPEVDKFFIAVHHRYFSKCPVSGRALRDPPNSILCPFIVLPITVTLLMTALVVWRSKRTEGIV
The experiment in a line: Receptor binding assay (competition with 125I Bolton Hunter rat amylin, basal forebrain membranes). The source says: A preferred source of the membrane preparations used in the assay is the basal forebrain which comprises membranes from the nucleus accumbens and surrounding regions.
Unlabeled peptides were obtained from BACHEM Inc. (Torrance, Calif.) and Peninsula Laboratories (Belmont, Calif.).
Male Sprague-Dawley rats (200-250) grams were sacrificed by decapitation. Brains were removed to cold phosphate-buffered saline (PBS). From the ventral surface, cuts were made rostral to the hypothalamus, bounded laterally by the olfactory tracts and extending at a 45° angle medially from these tracts. This basal forebrain tissue, containing the nucleus accumbens and surrounding regions, was weighed and homogenized in ice-cold 20 mM HEPES buffer (20 mM HEPES acid, pH adjusted to 7.4 with NaOH at 23° C.). […] The final membrane pellet was resuspended in 20 mM HEPES buffer containing 0.2 mM phenylmethylsulfonyl fluoride (PMSF).
Solutions were incubated for 60 minutes at 23° C. […] Filters were washed immediately before filtration with 5 ml cold PBS, and immediately after filtration with 15 ml cold PBS.

For assay [1], the system named is insulin-stimulated glycogen synthesis in soleus muscle. The assay can be described thus: Soleus muscle assay. Type of assay: cell-based. Particulars: rat soleus muscle, inhibition of glucose incorporation into glycogen. As to the method:
Concentrations of peptide dissolved in carrier-free buffers are determined by quantitative amino acid analysis, as described therein. The ability of compounds to act as agonists in this assay is determined by measuring EC50 values. […] Similar results were obtained with other agonist compounds listed above.

Bridge positions count the residues as written; N and C are the ends. Peptide text beside a SMILES is read from it.

Compound `CC[C@H](C)[C@H](NC(=O)[C@H](C)NC(=O)CNC(=O)[C@H](Cc1ccccc1)NC(=O)[C@H](CC(N)=O)NC(=O)[C@H](CC(N)=O)NC(=O)[C@H](CO)NC(=O)[C@H](CO)NC(=O)[C@H](Cc1c[nH]cn1)NC(=O)[C@@H](NC(=O)[C@H](CC(C)C)NC(=O)[C@H](Cc1ccccc1)NC(=O)[C@H](CC(N)=O)NC(=O)[C@H](C)NC(=O)[C@H](CC(C)C)NC(=O)[C@H](CCCNC(=N)N)NC(=O)[C@H](CCC(N)=O)NC(=O)[C@@H](NC(=O)[C@H](C)NC(=O)[C@@H]1CCCCNC(=O)C[C@H](NC(=O)[C@@H](N)CCCCN)C(=O)N[C@@H](CC(N)=O)C(=O)N[C@@H]([C@@H](C)O)C(=O)N[C@@H](C)C(=O)N[C@@H]([C@@H](C)O)C(=O)N1)[C@@H](C)O)C(C)C)C(=O)N[C@@H](CC(C)C)C(=O)N[C@@H](CO)C(=O)N[C@@H](CO)C(=O)N[C@H](C(=O)N[C@@H](CC(N)=O)C(=O)N[C@H](C(=O)NCC(=O)N[C@@H](CO)C(=O)N[C@@H](CC(N)=O)C(=O)N[C@H](C(=O)N[C@@H](Cc1ccc(O)cc1)C(N)=O)[C@@H](C)O)C(C)C)[C@@H](C)O` [^2,7Cyclo-[^2Asp,^7Lys]-h-Amylin] (H-KDNTATKATQRLANFLVHSSNNFGAILSSTNVGSNTY-NH2; lactam 2-7; N-terminus and C-terminus assumed) registered an IC50 at amylin receptors of 0.31 nM. In assay [1], this compound displayed an EC50 of 6.62 nM.
